Assay results: US20070203224A1, “SMALL-MOLECULES FOR TREATING CANCER AND ABNORMAL CELL PROLIFERATION DISORDERS” (University of Southern California, priority 2006, published 2007)

Tests used:
HCT116p53+/+ cells = test: Cell cycle analysis by propidium iodide DNA staining; format: cell-based, human; conditions: 1 μM
Protocol: Cell cycle perturbations induced by the representative compounds were analyzed by propidium iodide DNA staining. […] At the end of each treatment time, cells were collected and washed with PBS after a gentle centrifugation at 200×g for 5 minutes. Cells were thoroughly resuspended in 0.5 mL of PBS and fixed in 70% ethanol for at least 2 hours at 4° C. Ethanol-suspended cells were then centrifuged at 200×g for 5 minutes and washed twice in PBS to remove residual ethanol. For cell cycle analysis, the pellets were suspended in 1 mL of PBS containing 0.02 mg/mL of propidiumiodide, 0.5 mg/mL of DNase-free RNase A and 0.1% of Triton X-100 and incubated at 37° C. for 30 minutes. Cell cycle profiles were obtained using a FACScan flowcytometer (Becton Dickinson, San Jose, Calif.) and data were analyzed by ModFit LT software (Verity Software House, Inc., Topsham, Me.).

MCF7 breast cells = test: MTT assay (cytotoxicity); format: cell-based; conditions: Homo sapiens, read-out: Anticancer Activity (IC50)
Protocol: [The procedure below names another cell line; the source lists this cell line under the same test.] (§1) The cytotoxicity of the several representative compounds have been evaluated using MTT assay. Briefly, cells were seeded in 96-well microtiter plates (HCT16 p53+/+ (wild type), HCTp53−/− (p53 negative) colon cancer cells and MD-MBA-435 (p53 mutant) breast cancer cells at 4,000 cells/well) and allowed to attach. Cells were subsequently treated with a continuous exposure to the corresponding drug for 72 hours. A 3-(4,5-dimethylthiazol-2-yl)-2,5-diphenyltetrazolium bromide solution (at a final concentration of 0.5 mg/mL) was added to each well, and cells were incubated for 4 hours at 37° C. After removal of the medium, DMSO was added and the absorbance was read at 570 nm. All assays were done in triplicate. The IC50 was then determined for each drug from a plot of log (drug concentration) versus percentage of cell kill.

[1] = system: NIH 189 mouse fibroblast cells; test: MTT assay (cytotoxicity); format: cell-based; conditions: read-out: Anticancer Activity (IC50)
Protocol: [The procedure below names another organism; the source lists this organism under the same test.] as §1

[2] = system: NIH3T3 mouse fibroblast cells; test: MTT assay (cytotoxicity); format: cell-based; conditions: read-out: Anticancer Activity (IC50)
Protocol: [The procedure below names another organism; the source lists this organism under the same test.] as §1

[3] = system: HCTp53−/− (p53 negative) colon cancer cells; test: MTT assay (cytotoxicity); format: cell-based; conditions: Homo sapiens, 72 hours exposure, read-out: Anticancer Activity (IC50)
Protocol: as §1

[4] = system: HCT16 p53+/+ (wild type) colon cancer cells; test: MTT assay (cytotoxicity); format: cell-based; conditions: Homo sapiens, 72 hours exposure, read-out: Anticancer Activity (IC50)
Protocol: as §1

[5] = system: MD-MBA-435 (p53 mutant) breast cancer cells; test: MTT assay (cytotoxicity); format: cell-based; conditions: Homo sapiens, 72 hours exposure, read-out: Anticancer Activity (IC50)
Protocol: as §1

MDA-MB-435 cells = test: Drug treatment of tumor xenografts in athymic nude mice; format: in vivo
Protocol: 50 male athymic nude (nu/nu) mice (Charles River Laboratories, Wilmington, USA) were used for in vivo testing. The animals were fed ad libitum and kept in air-conditioned rooms at 20±2° C. with a 12 h light-dark period. Animal care and manipulation were in agreement with the University of Southern California (USC) institutional guidelines, which are in accordance with the Guidelines for the Care and Use of Laboratory Animals.
MDA-MB-435 cells from in vitro cell culture were inoculated s.c. in both flanks of athymic nude mice (2×10^6 cells/flank) under aseptic conditions. Tumor growth was assessed by biweekly measurement of tumor diameters with a Vernier caliper (length×width). Tumor weight was calculated according to the formula: TW (mg)=tumor volume (mm^3)=d^2×D/2, where d and D are the shortest and longest diameters, respectively. Cells were allowed to grow to an average volume of 100 mm^3. Animals were then randomly assigned for control and treatment groups to receive control vehicle or CT19 (10 and 20 mg/kg, dissolved in sesame oil) via i.p. injections once a day for 5 days. Treatment of each animal was based on individual body weight. After 5-day treatment, the tumor volumes in each group were measured once a week for four weeks. Treated animals were checked daily for treatment toxicity/mortality.
Assays were set up in triplicates and the results were expressed as means±SD. Statistical analysis and P-value determination were done by two-tailed paired t test with a confidence interval of 95% for determination of the significance differences between treatment groups. P<0.05 were considered to be significant. ANOVA was used to test for significance among groups. The SAS statistical software package (SAS institute) was used for statistical analysis.
The in vivo efficacy of CT19 was evaluated in nude mice inoculated with human breast MDA-MB-435 cells. Animals were treated with a daily i.p. injections of saline (controls) and CT19 at 10 mg/kg or 20 mg/kg. After five-days of dosing, the drug treatment was discontinued and the animals were monitored […].

[6] = system: panel of human cancer cell lines; test: Anticancer activity in a panel of human cancer cell lines; format: cell-based; conditions: result in words
Protocol: Anticancer activities and cell cycle perturbations induced by a number of representative compounds have been evaluated using MTT and cell cycle analysis assays.
as §1

[7] = 10 mg/kg or 20 mg/kg daily i.p. for five days

C=C1C(=O)O[C@@H](c2ccccc2)C1c1ccccc1 (stereo in doubt) [CT14, (4S,5R)-3-methylene-4,5-diphenyl-dihydrofuran-2(3H)-one]
G2/M arrest (HCT116p53+/+ cells): approximately 75% | % cells in G0/G1 (HCT116p53+/+ cells; after 12 h): 11.9% | % cells in G2/M (HCT116p53+/+ cells; after 12 h): 75.8% | % cells in S (HCT116p53+/+ cells; after 12 h): 12.4% | % cells in G0/G1 (HCT116p53+/+ cells; after 24 h): 12.6% | % cells in G2/M (HCT116p53+/+ cells; after 24 h): 74.5% | % cells in S (HCT116p53+/+ cells; after 24 h): 12.8% | IC50 (MCF7 breast cells): 2 µM | IC50 [1]: 1 µM | IC50 [2]: 2 µM | IC50 [3]: 8 ± 1 µM | IC50 [4]: 2 ± 1 µM | IC50 [5]: 2 ± 2 µM

C=C(C(=O)OC)[C@H](c1ccccc1)[C@@H](O)c1ccc(C#N)cc1 (stereo in doubt) [CT21, (3S,4R)-methyl 4-(4-cyanophenyl)-4-hydroxy-2-methylene-3-phenylbutanoate]
IC50 (MCF7 breast cells): 3 µM | IC50 [3]: 13 ± 2 µM | IC50 [4]: 2 ± 1 µM | IC50 [5]: 8 ± 2 µM

C=C1C(=O)O[C@@H](c2ccccc2)[C@@H]1C [CT10]
IC50 [3]: 23 ± 2 µM | IC50 [4]: 1 ± 1 µM | IC50 [5]: 5 ± 3 µM

C=C1C(=O)O[C@@H](c2ccc([N+](=O)[O-])cc2)[C@H]1c1ccc(OC)cc1 [CT11]
IC50 (MCF7 breast cells): 3 µM | IC50 [3]: 9 ± 5 µM | IC50 [4]: 2 ± 1 µM | IC50 [5]: 2 ± 2 µM

C=C1C(=O)O[C@@H](c2ccc([N+](=O)[O-])cc2)[C@@H]1c1ccc(C)cc1 [CT12]
IC50 (MCF7 breast cells): 6 µM | IC50 [3]: 7 ± 5 µM | IC50 [4]: 4 ± 1 µM | IC50 [5]: 3 ± 2 µM

C=C1C(=O)O[C@@H](c2ccccc2)[C@H]1c1ccccc1 [CT13, (4S,5R)-3-methylene-4,5-diphenyl-dihydrofuran-2(3H)-one]
IC50 [3]: 11 ± 2 µM | IC50 [4]: 3 ± 3 µM | IC50 [5]: 2 ± 2 µM

C=C1C(=O)O[C@@H](c2ccc([N+](=O)[O-])cc2)[C@H]1c1ccc(C)cc1 [CT15]
IC50 [3]: > 20 µM | IC50 [4]: > 20 µM | IC50 [5]: > 20 µM

C=C1C(=O)O[C@@H](c2ccc([N+](=O)[O-])cc2)[C@H]1c1ccc(Cl)cc1 [CT16]
IC50 (MCF7 breast cells): < 1 µM | IC50 [3]: 18 ± 1 µM | IC50 [4]: 4 ± 2 µM | IC50 [5]: 3 ± 2 µM

C=C1C(=O)O[C@@H](c2cc(OC)c(OC)c(OC)c2-c2cc(OC)c(OC)c(OC)c2)[C@H]1C [CT19]
Apparent toxicity (MDA-MB-435 cells; [7]): without apparent toxicity | Tolerability (MDA-MB-435 cells; [7]): well tolerated | Tumor burden in breast xenografts (MDA-MB-435 cells; [7]): significantly reduced tumor burden | Tumor growth (tumor weight) (MDA-MB-435 cells; 20 mg/kg daily i.p. for five days, monitored five weeks, p<0.05): significantly reduced tumor growth | IC50 (MCF7 breast cells): 4 µM | IC50 [3]: 4 µM | IC50 [4]: 1 ± 1 µM | IC50 [5]: 5 µM

COc1cc(-c2c(C3OC(=O)C(C)=C3C)cc(OC)c(OC)c2OC)cc(OC)c1OC (stereo not shown) [CT20]
IC50 (MCF7 breast cells): > 20 µM | IC50 [3]: > 20 µM | IC50 [4]: 3 µM | IC50 [5]: > 20 µM

C=C(C(=O)OC)[C@@H](c1ccccc1)[C@H](O)c1ccc([N+](=O)[O-])cc1 [CT22]
IC50 (MCF7 breast cells): 3 µM | IC50 [1]: 3 µM | IC50 [2]: 3.5 µM | IC50 [3]: 12 ± 4 µM | IC50 [4]: 1 ± 1 µM | IC50 [5]: 7 ± 5 µM

COC(=O)/C(=C/c1ccccc1)CS(=O)(=O)c1ccc(C)cc1 [CT23, (Z)-methyl 3-phenyl-2-(tosylmethyl)acrylate]
Anticancer activity in a panel of human cancer cell lines [6]: potent anticancer activity at low micromolar concentration | IC50 (MCF7 breast cells): 15 µM | IC50 [3]: 5 µM | IC50 [4]: 2 ± 2 µM | IC50 [5]: 6 ± 3 µM
